This is an account of results in US6624196B2, “Benzene butyric acids and their derivatives as inhibitors of matrix metalloproteinases” (Warner-Lambert Company, priority 1999, dated 2003).

Data set [1] has as its target T1, MMP-13CD (collagenase-3 catalytic domain) (Homo sapiens, UniProt P45452).
T1 construct: Experiments were carried out with the catalytic domains of the proteinases; made in house; host or cells: Escherichia coli
As to the kind of experiment: Thiopeptolide substrate assay, collagenase-3 catalytic domain. It is filed as biochemical. The settings on record: for pIC50: thiopeptolide substrate, catalytic domain; for inhibition at 10 µM: read-out: % inhibition of the enzyme MMP-13CD. How it is done:
(§1) Experiments were carried out with the catalytic domains of the proteinases. […] IC50 values were determined using a thiopeptolide substrate, Ac-Pro-Leu-Gly-thioester-Leu-Leu-Gly-OEt (ye Q. -Z., Johnson L. L., Hupe D. J., and Baragi V., “Purification and Characterization of the Human Stromelysin Catalytic Domain Expressed in Escherichia coli,” Biochemistry, 1992;31:11231-11235; ye Q. -Z., Johnson L. L., yu A. E., and Hupe D., “Reconstructed 19 kDa catalytic domain of gelatinase A is an active proteinase,” Biochemistry, 1995;34:4702-4708.) MMP-13CD was expressed from a synthetic gene and purified from Escherichia coli cell culture according to a previously described method (ye Q. -Z., Johnson L. L., and Baragi V., “Gene synthesis and expression in E. coli for PUMP, a human matrix metalloproteinase,” Biochemical and Biophysical Research Communications, 1992;186:143-149.)

Data set [2] concerns the target T2, MMP-3CD (stromelysin-1 catalytic domain) (Homo sapiens, UniProt P08254).
T2 construct: Experiments were carried out with the catalytic domains of the proteinases; made in house; host or cells: Escherichia coli
Nature of the data set: Thiopeptolide substrate assay, stromelysin-1 catalytic domain. Type of data set: biochemical. The settings on record: for pIC50: thiopeptolide substrate, catalytic domain; for inhibition at 10 µM: read-out: % inhibition of the enzyme MMP-3CD. On the procedure: as §1

Data set [3] has as its target T3, MMP-2CD (gelatinase A catalytic domain) (Homo sapiens, UniProt P08253, DEL220-393).
T3 construct: Experiments were carried out with the catalytic domains of the proteinases
As to the kind of experiment: Thiopeptolide substrate assay, gelatinase A catalytic domain. It is filed as biochemical. The settings on record: for pIC50: thiopeptolide substrate, catalytic domain; for inhibition at 10 µM: read-out: % inhibition of the enzyme MMP-2CD. How it is done: as §1

[4] abbreviates: 10 μM concentration of inhibitor (footnote a, Examples 8 through 25).

pIC50: −log10 of the molar value.

T3 sequence (P08253 with tags, fused parts or gaps DEL220-393): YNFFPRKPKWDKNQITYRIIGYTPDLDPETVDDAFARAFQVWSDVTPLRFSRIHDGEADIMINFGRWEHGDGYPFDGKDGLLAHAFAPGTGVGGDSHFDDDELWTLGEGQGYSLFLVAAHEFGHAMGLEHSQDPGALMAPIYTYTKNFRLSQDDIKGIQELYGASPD
T2 sequence (P08254 100-272 limits assumed): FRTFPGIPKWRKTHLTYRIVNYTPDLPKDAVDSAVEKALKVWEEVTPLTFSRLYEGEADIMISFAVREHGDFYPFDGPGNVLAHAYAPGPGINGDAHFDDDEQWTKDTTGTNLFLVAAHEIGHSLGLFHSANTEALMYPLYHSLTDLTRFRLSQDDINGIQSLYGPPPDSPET

For the compound “4-Hydroxyimino-4-[(4-methyl-benzoyl)amino-phenyl]-butyric acid [Example 2]”, the pIC50 in data set [1] was 5.42; in data set [2] it was 5.96; in data set [3], 6.39.

On to “4-[4-(Benzoylamino)-phenyl]-4-oxo-butyric acid [Example 28]”, for which the values for the pIC50 in data set [1], in data set [2] and in data set [3] were 4.77, 6.26 and 6.96, respectively.

On to “4-[4-(Carboxy-acetylamino)-phenyl]-4-oxo-butyric acid [Example 36]”, for which the pIC50 in data set [2] was 4.77; in data set [3] it was 4.39.

On to `Cc1ccc(C(=O)Nc2ccc(C(=O)CCC(=O)O)cc2)cc1` [Example 1, 4-[4-(4-Methyl-benzoylamino)-phenyl]-4-oxo-butyric acid], for which the pIC50 was 5.24 in data set [1], 5.81 in data set [2] and 6.66 in data set [3].

For the compound `O=C(O)CCC(=O)c1ccc(NC(=O)C2CCCCC2)cc1` [Example 7, 4-[4-(Cyclohexane-carbonyllamino)-phenyl]-4-oxo-butyric acid], the melting point lay in the range of 195 to 198 °C. In addition, the negative logarithm of the IC50 (pIC50) in data set [2] is 4.70.

Consider `O=C(O)CCC(=O)c1ccc(NC(=O)c2cccnc2)cc1` [Example 8, 4-[4-(Pyridin-3-yl-carbonylamino)-phenyl]-4-oxo-butyric acid], for which the inhibition at 10 µM in data set [1] (setting [4]) was 0%; in data set [2] (setting [4]), 3%; in data set [3] (setting [4]), 15%.

In the case of `CCCCCCCCC(=O)Nc1ccc(C(=O)CCC(=O)O)cc1` [Example 9, 4-[4-(Nonanoylamino)-phenyl]-4-oxo-butyric acid], the results for the inhibition at 10 µM in data set [1] (setting [4]), in data set [2] (setting [4]) and in data set [3] (setting [4]) were 3%, 75% and 85%, respectively.

Regarding `CCCCCCCC(=O)Nc1ccc(C(=O)CCC(=O)O)cc1` [Example 10, 4-[4-(Octanoylamino)-phenyl]-4-oxo-butyric acid], the inhibition at 10 µM in data set [1] (setting [4]) turned out to be 8%; in data set [2] (setting [4]) it was 66%; in data set [3] (setting [4]) it was 79%.

Turning to `CCC(=O)Nc1ccc(C(=O)CCC(=O)O)cc1` [Example 11, 4—oxo-4-[4-(propionylamino)-phenyl]-butyric acid], the results for the inhibition at 10 µM in data set [1] (setting [4]), in data set [2] (setting [4]) and in data set [3] (setting [4]) were 9%, 21% and 46%, respectively.

As for `COc1cccc(C(=O)Nc2ccc(C(=O)CCC(=O)O)cc2)c1` [Example 12, 4-[4-(3-Methoxy-benzoylamino)-phenyl]-4-oxo-butyric acid], the inhibition at 10 µM in data set [1] (setting [4]) is 11%; in data set [2] (setting [4]), 31%; in data set [3] (setting [4]), 75%.

Take `O=C(O)CCC(=O)c1ccc(NC(=O)c2ccc(Cl)cc2Cl)cc1` [Example 13, 4-[4-(2,4-Dichloro-benzoylamino)-phenyl]-4-oxo-butyric acid]: the results for the inhibition at 10 µM in data set [1] (setting [4]), in data set [2] (setting [4]) and in data set [3] (setting [4]) were 0%, 11% and 26%, respectively.

In the case of `O=C(O)CCC(=O)c1ccc(NC(=O)CCCc2ccc(Br)cc2)cc1` [Example 14, 4-{4-[4-(4-Bromo-phenyl)-butyrylamino]-phenyl}-4-oxo-butyric acid], the inhibition at 10 µM in data set [1] (setting [4]) came to 7%; in data set [2] (setting [4]), 48%; in data set [3] (setting [4]) it was 26%.

Turning to `CCCCCCC(=O)Nc1ccc(C(=O)CCC(=O)O)cc1` [Example 15, 4-[4-(Heptanoylamino)-phenyl]-4-oxo-butyric acid], the inhibition at 10 µM in data set [1] (setting [4]) was found to be 11%; in data set [2] (setting [4]), 70%; in data set [3] (setting [4]) it was 83%.

`CCc1ccc(C(=O)Nc2ccc(C(=O)CCC(=O)O)cc2)cc1` [Example 16, 4-[4-(4-Ethyl-benzoylamino)-phenyl]-4-oxo-butyric acid]: the values for the inhibition at 10 µM in data set [1] (setting [4]), in data set [2] (setting [4]) and in data set [3] (setting [4]) were 60%, 85% and 97%, respectively.

`CCCCOc1ccc(C(=O)Nc2ccc(C(=O)CCC(=O)O)cc2)cc1` [Example 17, 4-[4-(4-Butoxy-benzoylamino)-phenyl]-4-oxo-butyric acid]: the inhibition at 10 µM stood at 65% in data set [1] (setting [4]), 78% in data set [2] (setting [4]) and 97% in data set [3] (setting [4]).

As for `O=C(O)CCC(=O)c1ccc(NC(=O)c2ccc(Cl)c([N+](=O)[O-])c2)cc1` [Example 18, 4-[4-(4—Chloro-3-nitro-benzoylamino)-phenyl]-4-oxo-butyric acid], the results for the inhibition at 10 µM in data set [1] (setting [4]), in data set [2] (setting [4]) and in data set [3] (setting [4]) were 16%, 38% and 82%, respectively.

For `O=C(O)CCC(=O)c1ccc(NC(=O)C=Cc2ccccc2)cc1` [Example 19, 4-[4-(Cinnamoylamino)-phenyl]-4-oxo-butyric acid], the inhibition at 10 µM in data set [1] (setting [4]) stood at 9%; in data set [2] (setting [4]), 72%; in data set [3] (setting [4]) it was 86%.

For `O=C(O)CCC(=O)c1ccc(NC(=O)c2ccc(Br)cc2)cc1` [Example 20, 4-[4-(4-Bromo-benzoylamino)-phenyl]-4-oxo-butyric acid], the values for the inhibition at 10 µM in data set [1] (setting [4]), in data set [2] (setting [4]) and in data set [3] (setting [4]) were 30%, 81% and 93%, respectively.

For `O=C(O)CCC(=O)c1ccc(NC(=O)c2cccc([N+](=O)[O-])c2)cc1` [Example 21, 4-[4-(3-Nitro-benzoylamino)-phenyl]-4-oxo-butyric acid], the results for the inhibition at 10 µM in data set [1] (setting [4]), in data set [2] (setting [4]) and in data set [3] (setting [4]) were 8%, 23% and 78%, respectively.

Consider `CCCC(=O)Nc1ccc(C(=O)CCC(=O)O)cc1` [Example 22, 4-[4-(Butyrylamino)-phenyl]-4-oxo-butyric acid], for which the inhibition at 10 µM in data set [1] (setting [4]) stood at 0%; in data set [2] (setting [4]), 35%; in data set [3] (setting [4]) it was 62%.

Regarding `CCCCCCCCCC(=O)Nc1ccc(C(=O)CCC(=O)O)cc1` [Example 23], the “% inhibition of the enzyme MMP-13CD” value in data set [1] (setting [4]) was 0%. The “% inhibition of the enzyme MMP-3CD” value in data set [2] (setting [4]) is reported as 39%. Further, the “% inhibition of the enzyme MMP-2CD” value in data set [3] (setting [4]) was determined as 54%.

For `COc1cc(OC)cc(C(=O)Nc2ccc(C(=O)CCC(=O)O)cc2)c1` [Example 24, 4-[4-(3,5-Dimethoxy-benzoylamino)-phenyl]-4-oxo-butyric acid], the inhibition at 10 µM was found to be 0% in data set [1] (setting [4]), 4% in data set [2] (setting [4]) and 15% in data set [3] (setting [4]).

As to `COc1ccccc1C(=O)Nc1ccc(C(=O)CCC(=O)O)cc1` [Example 25, 4-[4-(2-Methoxy-benzoylamino)-phenyl]-4-oxo-butyric acid], the inhibition at 10 µM in data set [1] (setting [4]) amounted to 0%; in data set [2] (setting [4]), 13%; in data set [3] (setting [4]), 18%.

Turning to `O=C(O)CCC(=O)c1ccc(NC(=O)c2ccc(Cl)cc2)cc1` [Example 26, 4-[4-(4—Chloro-benzoylamino)-phenl]-4-oxo-butyric acid], the pIC50 in data set [1] is 4.62; in data set [2] it was 6.09; in data set [3], 6.92.

In the case of `COc1ccc(C(=O)Nc2ccc(C(=O)CCC(=O)O)cc2)cc1` [Example 27, 4-[4-(4-Methoxy-benzoylamino)-phenyl]-4-oxo-butyric acid], the pIC50 in data set [1] is 5.01; in data set [2] it was 6.47; in data set [3], 7.15.

As to `O=C(O)CCC(=O)c1ccc(NC(=O)c2ccc([N+](=O)[O-])cc2)cc1` [Example 29, 4-[4-(4-Nitro-benzoylamino)-phenyl]-4-oxo-butyric acid], the negative logarithm of the IC50 (pIC50) in data set [1] is 4.40; in data set [2] it was 5.62; in data set [3], 6.34.

For the compound `O=C(O)CCC(=O)c1ccc(NC(=O)c2ccc(F)cc2F)cc1` [Example 30, 4-[4-(2,4-Difluoro-benzoylamino)-phenyl]-4-oxo-butyric acid], the pIC50 in data set [2] was 5.30; in data set [3] it was 6.03.

Take `O=C(O)CCC(=O)c1ccc(NC(=O)c2cccs2)cc1` [Example 31, 4—oxo-4-[4-(thiophen-2-yl-carbonylamino)-phenyl]-butyric acid]: the negative-log IC50 (pIC50) in data set [1] was 4.72; in data set [2], 5.77; in data set [3], 6.89.

In the case of `O=C(O)CCC(=O)c1ccc(NC(=O)c2ccco2)cc1` [Example 32, 4-[4-(2-Furoylamino)-phenyl]-4-oxo-butyric acid], the results for the negative-log IC50 (pIC50) in data set [2] and in data set [3] were 4.72 and 6.04, respectively.

On to `O=C(O)CCC(=O)c1ccc(NC(=O)Cc2ccccc2)cc1` [Example 33, 4—oxo-4-[4-(phenyl-acetylamino)-phenyl]-butyric acid], for which the pIC50 in data set [2] is 4.62; in data set [3], 4.28.

In the case of `O=C(O)CCC(=O)c1ccc(NC(=O)CCc2ccccc2)cc1` [Example 34, 4—oxo-4-[4-(3-phenyl-propionylamino)-phenyl]-butyric acid], the pIC50 in data set [2] is 5.18.

As to `O=C(O)CCC(=O)Nc1ccc(C(=O)CCC(=O)O)cc1` [Example 35, 4-[4-(3—Carboxy-propionylamino)-phenyl]-4-oxo-butyric acid], the negative-log IC50 (pIC50) in data set [2] was 4.89; in data set [3] it was 4.42.
